The text below walks through data of ChEMBL document CHEMBL4229536, “In vitro and in vivo pharmacokinetic and pharmacodynamic study of MBRI-001, a deuterium-substituted plinabulin derivative as a potent anti-cancer agent” (Bioorg Med Chem, 2018).

Series [1] relates to Mus musculus. Kind of series: Toxicity in Balb/c mouse assessed as mortality at 20 to 40 mg/kg, iv administered three times in a day every 2 days for 15 consecutive days. Type of series: organism-based. The settings on record: in vivo, 48 h.
Series [2] concerns Mus musculus. Kind of series: Toxicity in nude mouse xenografted with human NCI-H460 cells assessed as death at 25 to 100 mg/kg, po qd for 14 consecutive days. Type of series: organism-based. The settings on record: in vivo.
Series [3] concerns the target Cytochrome P450 2C19 (Homo sapiens, UniProt P33261). Kind of series: Inhibition of CYP2C19 in human liver microsomes preincubated for 10 mins followed by NADPH addition measured after 10 mins by LC-MS/MS analysis. Type of series: ADME.
Series [4] can be described thus: Stability in rat plasma at 1 uM after 10 mins by LC-MS/MS analysis. It is filed as ADME, cell-free. The settings on record: read-out: Stability.
Series [5] is described as follows: Stability in rat plasma at 1 uM after 5 mins by LC-MS/MS analysis. Type of series: ADME, cell-free. The conditions noted are these: read-out: Stability.
The nature of series [6]: Stability in rat liver microsomes at 50 uM after 60 mins in presence of NADPH by LC-MS/MS analysis. Type of series: ADME, microsome. The conditions noted are these: read-out: Stability.
The target in series [7] is Cytochrome P450 3A4 (Homo sapiens, UniProt P08684). Kind of series: Inhibition of CYP3A4 in human liver microsomes preincubated for 10 mins followed by NADPH addition measured after 10 mins by LC-MS/MS analysis. It is filed as ADME.
Cytochrome P450 3A4, sequence (P08684 whole entry): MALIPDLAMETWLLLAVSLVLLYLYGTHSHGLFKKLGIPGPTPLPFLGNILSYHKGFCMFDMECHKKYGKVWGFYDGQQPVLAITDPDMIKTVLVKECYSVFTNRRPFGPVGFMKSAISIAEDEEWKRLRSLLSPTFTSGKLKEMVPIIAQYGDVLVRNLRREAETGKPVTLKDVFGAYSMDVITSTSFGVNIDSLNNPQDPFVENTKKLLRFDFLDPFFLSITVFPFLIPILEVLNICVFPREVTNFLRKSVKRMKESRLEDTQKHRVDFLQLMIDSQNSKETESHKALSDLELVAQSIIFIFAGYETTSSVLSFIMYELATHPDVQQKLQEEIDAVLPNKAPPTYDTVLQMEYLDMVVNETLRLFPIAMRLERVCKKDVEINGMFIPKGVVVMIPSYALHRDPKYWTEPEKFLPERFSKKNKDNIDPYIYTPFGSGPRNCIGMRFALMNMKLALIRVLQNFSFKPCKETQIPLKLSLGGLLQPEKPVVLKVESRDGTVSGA
The nature of series [8]: Stability in rat liver microsomes at 50 uM after 20 mins in presence of NADPH by LC-MS/MS analysis. It is filed as ADME, microsome. The settings on record: read-out: Stability.
Series [9] concerns the target T1, Cytochrome P450 1A2 (Homo sapiens, UniProt P05177).
T1 sequence (P05177 whole entry): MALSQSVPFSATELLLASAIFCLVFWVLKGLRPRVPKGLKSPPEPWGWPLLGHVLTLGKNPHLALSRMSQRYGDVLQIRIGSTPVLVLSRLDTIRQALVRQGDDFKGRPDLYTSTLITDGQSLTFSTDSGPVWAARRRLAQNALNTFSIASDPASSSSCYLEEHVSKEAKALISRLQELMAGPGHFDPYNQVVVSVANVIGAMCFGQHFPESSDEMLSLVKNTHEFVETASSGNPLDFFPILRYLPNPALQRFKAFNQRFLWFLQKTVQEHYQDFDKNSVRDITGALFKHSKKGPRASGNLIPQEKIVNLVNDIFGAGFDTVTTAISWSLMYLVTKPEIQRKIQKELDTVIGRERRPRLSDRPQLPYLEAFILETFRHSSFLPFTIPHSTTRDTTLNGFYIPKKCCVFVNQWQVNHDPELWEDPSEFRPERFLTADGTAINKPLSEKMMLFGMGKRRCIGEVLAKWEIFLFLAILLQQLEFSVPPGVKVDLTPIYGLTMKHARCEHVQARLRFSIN
Kind of series: Inhibition of CYP1A2 in human liver microsomes preincubated for 10 mins followed by NADPH addition measured after 10 mins by LC-MS/MS analysis. Type of series: ADME.

Series [10] is described as follows: Stability in rat plasma at 1 uM after 120 mins by LC-MS/MS analysis. It is filed as ADME, cell-free. The conditions noted are these: read-out: Stability.
The nature of series [11]: Stability in rat liver microsomes at 50 uM after 5 mins in presence of NADPH by LC-MS/MS analysis. The settings on record: microsomes, 5 min, 50 µM. It is filed as ADME, microsome.
The target in series [12] is Cytochrome P450 2C9 (Homo sapiens, UniProt P11712). Kind of series: Inhibition of CYP2C9 in human liver microsomes preincubated for 10 mins followed by NADPH addition measured after 10 mins by LC-MS/MS analysis. Type of series: ADME.
Cytochrome P450 2C9, sequence (P11712 whole entry): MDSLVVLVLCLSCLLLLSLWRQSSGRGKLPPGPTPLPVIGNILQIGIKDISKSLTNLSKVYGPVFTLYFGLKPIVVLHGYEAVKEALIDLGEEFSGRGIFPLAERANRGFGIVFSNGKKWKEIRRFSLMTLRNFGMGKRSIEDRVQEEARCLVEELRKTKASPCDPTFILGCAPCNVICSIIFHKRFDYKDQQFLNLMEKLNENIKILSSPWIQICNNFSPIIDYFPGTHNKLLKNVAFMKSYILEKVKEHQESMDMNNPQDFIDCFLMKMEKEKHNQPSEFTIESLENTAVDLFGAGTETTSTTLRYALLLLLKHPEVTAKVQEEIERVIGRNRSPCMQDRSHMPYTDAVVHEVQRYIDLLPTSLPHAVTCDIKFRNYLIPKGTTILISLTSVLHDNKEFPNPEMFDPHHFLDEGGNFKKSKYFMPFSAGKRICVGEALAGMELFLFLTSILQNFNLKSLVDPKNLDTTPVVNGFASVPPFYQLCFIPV
Series [13] in a line: Stability in rat liver microsomes at 50 uM after 270 mins in presence of NADPH by LC-MS/MS analysis. Type of series: ADME, microsome. The settings on record: 4.5 h.
Series [14] is described as follows: Protein binding in Sprague-Dawley rat plasma at 2 uM after 4 hrs by LC-MS/MS analysis. It is filed as ADME, cell-free. The settings on record: read-out: PPB (converted).
Series [15] is described as follows: Stability in rat liver microsomes at 50 uM after 150 mins in presence of NADPH by LC-MS/MS analysis. The settings on record: read-out: Stability. Type of series: ADME, microsome.
Series [16] is described as follows: Stability in rat plasma at 1 uM after 40 mins by LC-MS/MS analysis. Type of series: ADME, cell-free. The settings on record: read-out: Stability.
Series [17] in a line: Stability in rat liver microsomes at 50 uM after 120 mins in presence of NADPH by LC-MS/MS analysis. Type of series: ADME, microsome. The settings on record: read-out: Stability.
Series [18] in a line: Half life in rat liver microsomes at 50 uM in presence of NADPH by LC-MS/MS analysis. Type of series: ADME, microsome.
Series [19] deals with Cytochrome P450 2D6 (Homo sapiens, UniProt P10635). Kind of series: Inhibition of CYP2D6 in human liver microsomes preincubated for 10 mins followed by NADPH addition measured after 10 mins by LC-MS/MS analysis. It is filed as ADME.
Cytochrome P450 2D6, sequence (P10635 whole entry): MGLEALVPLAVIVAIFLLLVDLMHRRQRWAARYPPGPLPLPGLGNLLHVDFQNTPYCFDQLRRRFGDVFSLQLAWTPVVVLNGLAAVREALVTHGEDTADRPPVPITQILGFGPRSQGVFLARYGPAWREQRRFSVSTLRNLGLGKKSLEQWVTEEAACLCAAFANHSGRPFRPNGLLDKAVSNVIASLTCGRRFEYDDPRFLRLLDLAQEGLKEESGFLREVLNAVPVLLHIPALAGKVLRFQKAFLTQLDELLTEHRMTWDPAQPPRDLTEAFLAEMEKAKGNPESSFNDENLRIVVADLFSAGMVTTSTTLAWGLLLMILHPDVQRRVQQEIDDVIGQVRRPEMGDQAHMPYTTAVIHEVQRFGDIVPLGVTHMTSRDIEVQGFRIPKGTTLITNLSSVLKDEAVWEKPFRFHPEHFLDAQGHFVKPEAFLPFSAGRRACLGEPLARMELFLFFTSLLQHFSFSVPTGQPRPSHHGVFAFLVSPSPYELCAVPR
A short description of series [20]: Stability in rat liver microsomes at 50 uM after 210 mins in presence of NADPH by LC-MS/MS analysis. It is filed as ADME, microsome. The settings on record: microsomes, 3.5 h, 50 µM.
Series [21] can be described thus: Stability in rat liver microsomes at 50 uM after 10 mins in presence of NADPH by LC-MS/MS analysis. The settings on record: microsomes, 10 min, 50 µM. It is filed as ADME, microsome.
Series [22] is described as follows: Protein binding in human plasma at 2 uM after 4 hrs by LC-MS/MS analysis. The conditions noted are these: read-out: PPB (converted). It is filed as ADME, cell-free.
The nature of series [23]: Protein binding in Beagle dog plasma at 2 uM after 4 hrs by LC-MS/MS analysis. Type of series: ADME, cell-free, Canis lupus familiaris. The settings on record: read-out: PPB (converted).
A short description of series [24]: Stability in rat plasma at 1 uM after 60 mins by LC-MS/MS analysis. Type of series: ADME, cell-free. The settings on record: read-out: Stability.
Series [25] in a line: Stability in rat liver microsomes at 50 uM after 40 mins in presence of NADPH by LC-MS/MS analysis. It is filed as ADME, microsome. The settings on record: read-out: Stability.
Series [26] in a line: Clearance in rat liver microsomes at 50 uM in presence of NADPH by LC-MS/MS analysis. Type of series: ADME, microsome. The settings on record: read-out: CLH.
Series [27] can be described thus: Stability in rat plasma at 1 uM after 20 mins by LC-MS/MS analysis. It is filed as ADME, cell-free. The settings on record: read-out: Stability.
Series [28] is described as follows: Stability in rat plasma at 1 uM after 90 mins by LC-MS/MS analysis. It is filed as ADME, cell-free. The conditions noted are these: read-out: Stability.
Series [29] in a line: Stability in rat liver microsomes at 50 uM after 90 mins in presence of NADPH by LC-MS/MS analysis. It is filed as ADME, microsome. The conditions noted are these: read-out: Stability.

Cytochrome P450 2C19, sequence (P33261 whole entry): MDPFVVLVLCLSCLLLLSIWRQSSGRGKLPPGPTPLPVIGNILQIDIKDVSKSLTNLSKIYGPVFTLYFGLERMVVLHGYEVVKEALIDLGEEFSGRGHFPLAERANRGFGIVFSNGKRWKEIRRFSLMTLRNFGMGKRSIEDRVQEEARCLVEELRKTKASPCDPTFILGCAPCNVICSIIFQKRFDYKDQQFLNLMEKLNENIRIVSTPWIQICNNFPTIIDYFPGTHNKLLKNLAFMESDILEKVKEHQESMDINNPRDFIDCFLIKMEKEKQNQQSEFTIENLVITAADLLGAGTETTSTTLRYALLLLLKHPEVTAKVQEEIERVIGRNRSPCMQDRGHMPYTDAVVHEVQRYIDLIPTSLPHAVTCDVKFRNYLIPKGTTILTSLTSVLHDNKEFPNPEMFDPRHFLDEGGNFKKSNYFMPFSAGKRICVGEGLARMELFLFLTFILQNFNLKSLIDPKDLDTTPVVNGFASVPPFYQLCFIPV

On to `Nc1ccn([C@@H]2O[C@H](CO)[C@@H](O)C2(F)F)c(=O)n1` [GEMCITABINE], for which the Activity entry in series [1] was “Non-Toxic”.

`COc1cc2ncnc(Nc3ccc(F)c(Cl)c3)c2cc1OCCCN1CCOCC1` [GEFITINIB]: the Activity entry in series [2] is recorded as “Non-Toxic”.

Turning to `CC(C)(C)c1[nH]cnc1/C=c1\[nH]c(=O)/c(=C/c2ccccc2)[nH]c1=O` [PLINABULIN], the IC50 was 4.23 µM in series [3]; above 50 µM in series [7]; 1.24 µM in series [9]; 0.53 µM in series [12]; above 50 µM in series [19]. In addition, in series [4], the remaining at 10 min, 1 µM was 97.7%. Also, in series [5], the remaining at 5 min, 1 µM was determined as 95.5%. Moreover, in [6], the remaining at 1 h, 50 µM was 44.8%. Further, the remaining at 20 min, 50 µM in series [8] was found to be 63.5%. In addition, the remaining at 2 h, 1 µM in series [10] came out at 109%. In addition, the Stability in series [11] is given as 77.21%; in [13] it was 34.94%; in [20], 29.64%; in [21], 65.58%. Further, the results for the fraction unbound at 4 h, 2 µM in [14], in [22] and in [23] were 0.039, 0.018 and 0.028, respectively. Also, the remaining at 2.5 h, 50 µM in series [15] came to 29.9%. In series [16], the remaining at 40 min, 1 µM was determined as 99%. The remaining at 2 h, 50 µM in series [17] was 29.9%. For the same compound, in series [18], the t1/2 amounted to 59.34 min. Besides, the remaining at 1 h, 1 µM in series [24] came out at 103%. The remaining at 40 min, 50 µM in series [25] was found to be 56.6%. Also, the microsomal CLint at 50 µM in [26] stood at 23.4 µL/min/mg. For the same compound, the remaining at 20 min, 1 µM in series [27] turned out to be 98.2%. The remaining at 1.5 h, 1 µM in series [28] was 110%. Besides, in [29], the remaining at 1.5 h, 50 µM is 41.1%.
